Test results published in ChEMBL document CHEMBL3217679, “Synthesis and biological activity profile of novel 2-cinnamylidene-1,3-diones related to coruscanone A: promising new antileishmanial agents” (Medchemcomm, 2012).
Active and inactive are the calls of the source. No cut-off for these calls is given here.

Experiments:
[1] = test system: Nakaseomyces glabratus; assay: Antifungal activity against Candida glabrata ATCC 90030 assessed as growth inhibition after 46 to 50 hrs by modified CLSI method; type: functional, organism-based
[2] = test system: Pichia kudriavzevii; assay: Antifungal activity against Candida krusei ATCC 6258 assessed as growth inhibition after 46 to 50 hrs by modified CLSI method; type: functional, organism-based
[3] = test system: Cryptococcus neoformans; assay: Antifungal activity against Cryptococcus neoformans ATCC 90113 assessed as growth inhibition after 70 to 74 hrs by modified CLSI method; type: functional, organism-based
[4] = test system: Leishmania donovani; assay: Antiparasitic activity against Leishmania donovani S1 promastigotes assessed as growth inhibition after 72 hrs by alamar blue assay; type: functional, organism-based; conditions: S1, 72 h
[5] = Cytotoxicity against African green monkey Vero cells by neutral red assay; type: cell-based; conditions: chlorocebus sabaeus, read-out: TC50 (the source's name)
[6] = test system: Candida albicans; assay: Antifungal activity against Candida albicans ATCC 90028 assessed as growth inhibition after 46 to 50 hrs by modified CLSI method; type: functional, organism-based
[7] = test system: Aspergillus fumigatus; assay: Antifungal activity against Aspergillus fumigatus ATCC 90906 assessed as growth inhibition after 46 to 50 hrs by alamar blue assay; type: functional, organism-based
[8] = test system: Plasmodium falciparum; assay: Antiparasitic activity against chloroquine-sensitive Plasmodium falciparum D6 assessed as growth inhibition at 16 uM after 48 hrs by pLDH assay; type: functional, organism-based
[9] = test system: Plasmodium falciparum; assay: Antiparasitic activity against chloroquine-resistant Plasmodium falciparum W2 assessed as growth inhibition at 16 uM after 48 hrs by pLDH assay; type: functional, organism-based

SMILES	IC50 [1]	IC50 [2]	IC50 [3]	IC50 [4]	IC90 [4]	CC50 [5]	growth inhibition (GI) [6]	growth inhibition (GI) [7]	growth inhibition (GI) [8]	growth inhibition (GI) [9]
O=C1CCC(=O)C1=C/C=C/c1ccccc1	> 60 µM	42.6 µM	11.9 µM	2.16 µM	3.58 µM	> 22.4 µM	inactive	inactive	inactive	inactive
C[C@@H]1[C@H](O)[C@@H](C)/C=C/C=C/C=C/C=C/C=C/C=C/C=C/[C@H](O[C@@H]2O[C@H](C)[C@@H](O)[C@H](N)[C@@H]2O)C[C@@H]2O[C@](O)(C[C@@H](O)C[C@@H](O)[C@H](O)CC[C@@H](O)C[C@@H](O)CC(=O)O[C@H]1C)C[C@H](O)[C@H]2C(=O)O [AMPHOTERICIN B]	0.28 µM	0.78 µM	0.35 µM	0.31 µM	1.09 µM	7.6 µM	inactive	–	–	–
CC1(C)CCC(=O)/C(=C\C=C\c2ccccc2)C1=O	> 60 µM	> 60 µM	19.9 µM	11.8 µM	20.1 µM	> 18.7 µM	inactive	inactive	inactive	inactive
CC(=O)C(=CC=C(c1ccccc1)c1ccccc1)C(C)=O	> 60 µM	> 60 µM	35.3 µM	9.29 µM	66.1 µM	> 16.4 µM	inactive	inactive	inactive	inactive
N=C(N)c1ccc(OCCCCCOc2ccc(C(=N)N)cc2)cc1 [PENTAMIDINE]	–	–	–	3.82 µM	12.4 µM	–	inactive	–	–	–
CC1(C)CC(=O)C(=CC=C(c2ccccc2)c2ccccc2)C(=O)C1	> 60 µM	> 60 µM	23.6 µM	9.38 µM	26.6 µM	> 14.4 µM	inactive	inactive	inactive	inactive
O=C1CCCC(=O)C1=CC=C(c1ccccc1)c1ccccc1	> 60 µM	> 60 µM	14.5 µM	10.2 µM	26.1 µM	> 15.7 µM	inactive	inactive	inactive	inactive
COc1ccc(/C=C/C=C2C(=O)CC(C)(C)CC2=O)cc1	> 60 µM	> 60 µM	38.2 µM	30.6 µM	68.9 µM	> 16.7 µM	inactive	inactive	inactive	inactive
CC1(C)CC(=O)C(=C/C=C/c2ccc(Br)cc2)C(=O)C1	> 60 µM	> 60 µM	24.7 µM	9.6 µM	18.6 µM	> 14.3 µM	inactive	inactive	inactive	inactive
O=C1CCC(=O)C1=C/C=C/c1ccc(Br)cc1	> 60 µM	> 60 µM	26.9 µM	8.58 µM	14.1 µM	> 16.3 µM	inactive	inactive	inactive	inactive
C/C=C/C=C/C=C1C(=O)CCCC1=O	> 60 µM	> 60 µM	> 60 µM	56.8 µM	> 100 µM	> 25 µM	inactive	inactive	inactive	inactive
COC(/C=C/c1ccccc1)=C1\C(=O)C=C(C)C1=O [CORUSCANONE A]	–	–	–	–	–	19.3 µM	–	–	–	–
CC1(C)CC(=O)C(=C/C=C/c2ccccc2)C(=O)C1	35.3 µM	> 60 µM	19 µM	20.1 µM	27.5 µM	> 18.7 µM	inactive	inactive	inactive	inactive
C/C=C/C=C/C=C1C(=O)CC(C)(C)CC1=O	> 60 µM	> 60 µM	> 60 µM	45.8 µM	> 100 µM	> 21.8 µM	inactive	inactive	inactive	inactive
COc1ccc(/C=C/C=C2C(=O)CCCC2=O)cc1	56 µM	> 60 µM	44.7 µM	19.5 µM	91.7 µM	> 18.6 µM	inactive	inactive	inactive	inactive
CC(=O)C(=C/C=C/c1ccccc1)C(C)=O	> 60 µM	> 60 µM	> 60 µM	19.1 µM	52.3 µM	> 22.2 µM	inactive	inactive	inactive	inactive
CC(=O)/C(=C\C=C\c1ccccc1)C(=O)OC(C)(C)C	> 60 µM	> 60 µM	> 60 µM	46.6 µM	99.2 µM	> 17.5 µM	inactive	inactive	inactive	inactive
COc1ccc(/C=C/C=C(C(C)=O)C(C)=O)cc1	> 60 µM	> 60 µM	> 60 µM	38.5 µM	> 100 µM	> 19.5 µM	inactive	inactive	inactive	inactive
COc1ccc(/C=C/C=C2C(=O)CCC2=O)cc1	35 µM	24.1 µM	13.4 µM	7.01 µM	19.8 µM	> 19.6 µM	inactive	inactive	–	–
COc1ccc(/C=C/C=C2C(=O)CC(c3ccccc3)CC2=O)cc1 (centres undefined)	> 60 µM	> 60 µM	> 60 µM	7.52 µM	14.7 µM	> 14.3 µM	inactive	inactive	inactive	inactive
CC(=O)C(=C/C=C/c1ccc(Br)cc1)C(C)=O	> 60 µM	> 60 µM	11.7 µM	9.55 µM	24.6 µM	> 16.2 µM	inactive	inactive	inactive	inactive
CC1(C)CC(=O)C(=C/C=C/c2ccc(F)cc2)C(=O)C1	35.6 µM	> 60 µM	16.6 µM	10.7 µM	25 µM	> 17.5 µM	inactive	inactive	inactive	inactive
